For experiment [1], the system named is orthotopic 4T1 mammary tumors. Briefly: Vascular parameters in tumors by intravital multiphoton microscopy. Type of experiment: in vivo, female SCID mice. The following applies: 37.5 mg/kg daily i.p. The protocol:
Female SCID mice bearing orthotopic GFP-labeled 3 mm 4T1 mammary tumors were treated with five daily i.p. injections (day 0-day 4) of 37.5 mg/kg DAL or saline. Implanted mammary fat pad windows (35) were surgically implanted to facilitate intravital imaging through multiphoton microscopy with a custom-built multiphoton microscope with a 20×0.95NA objective (Olympus), and mice were imaged by fluorescent angiography following retro-orbital injection of 60 uL of 10 mg/mL TAMRA-dextran (2MDa molecular mass). Images were collected on day 0, day 2, and day 4, with the first images collected immediately before the first treatment. The 2×2 grids were imaged in the sample plane (630-μm) field of view at each position) tissue from 0-200 μm depth. To measure vascular parameters in the mice over the course of treatment, a custom 3D vascular tracing and analysis software package based on MATLAB (The Mathworks) was applied to the images.
To study these effects quantitatively, fluorescent angiographies were conducted in female SCID mice bearing orthotopic 4T1 mammary tumors in mammary fat pad windows via intravital multiphoton microscopy (FIG. 3A) (22-24). These mice were treated with 37.5 mg/kg DAL or saline daily for 5 days by i.p. injection. It was determined that DAL treatment decreases tumor vascular volume fractions—a measure of vascular density—compared with saline treatment (FIG. 3B, p<0.002, day 4).

The test system of the next experiment is RhoA. Briefly: RhoA activity affinity purification assay (rhotekin RBD). Type of experiment: cell-based, human. The following applies: HUVEC cells. The source says:
Without wishing to be bound by theory, DAL brings about its antivascular effects by destabilizing cell adhesion through the actin cytoskeleton. It was next sought to identify which specific adhesion pathway it targets. Mechanical attachment at cell-cell adherens and tight junctions is regulated by dynamic changes in the actin cytoskeleton. Adherens junctions are composed of E-cadherin/β-catenin complexes and are connected to the actin cytoskeleton via sa-catenin (25-26), while tight junctions consist of transmembrane claudins and occludin and are associated with the actin cytoskeleton via ZO proteins (27-28). Therefore, potential targets of DAL in signaling pathways involved in actin remodeling were evaluated. […] Then, it was sought to determine whether Rho-GTPase family members are targets for DAL due to the disruption of cell adhesion and actin network remodeling along with inhibited motility. Rho-GTPases (e.g., Rac1) plays an important role in actin cytoskeletal organization and is involved in the coordination of cell adhesion (29). Furthermore, Rac1 is responsible for stabilizing endothelial cell junctions by opposing actin remodeling by Rho (30). In order to migrate, cancer cells employ dynamic remodeling of the actin cytoskeleton, form protrusive structures and generate forces necessary to produce cell translocation in the process regulated by Rho-GTPase Rac1. […]

Another experiment relates to Rac1. The experiment in a line: Rac1 protein level by western blot in HUVECs. Type of experiment: cell-based, human. As to conditions: HUVEC, 10 μM for 24 hours. The method, then:
HUVEC cells were treated with 10 μM of DAL for 24 hours and then lysed. A western blot with anti-human Rac1 antibody is shown on top panel while the bottom panel represents a loading control. […] To enhance ubiquitination events, HUVEC cells were pretreated with the proteasome inhibitors lactacystin (2.5 mM) or MG-132 (0.2 mM) for one hour and subsequently treated with DAL (10 μM) of DAL for 24 hours. Duolink in situ was used for the detection of ubiquitinated Rac1 in DAL treated and untreated HUVEC cells. For the two Duolink PLA probes, primary mouse antibodies raised against human Rac1 and primary rabbit anti-ubiquitin were used. Fluorescent spots represent ubiquitinated Rac1. The nuclei with additionally stained DAPI.
However, protein levels of Rac1 were reduced after DAL treatment (FIG. 6B). Next, it was assessed whether DAL can enhance Rac1 ubiquitination and therefore promote or speed up degradation (31-34). For the detection of Rac1 ubiquitination in HUVECs, Rac1-ubiquitin binding in situ was identified using a Duolink molecular proximity assay. In this assay, molecules thought to interact are targeted with fluorescent antibodies in situ, and individual interactions generate a signal detectable by microscopy only if secondary antibodies are located in close proximity to each other. […]
For orientation: Immunoblotting shows a protein as a band on a membrane.

In a further experiment the target is AKT1 (Homo sapiens, UniProt P31749). The experiment in a line: Kinase inhibition screening. Type of experiment: biochemical. The following applies: 10-dose, starting at 100 μM, 1 μM ATP. The protocol: (§1) To determine kinase activity of DAL, various kinases (AKT1, AKT2, AKT3, PKA, PKC alpha, PKC delta, PAK1, EPHB2, EPHB4, p38 alpha, PI3K-alpha, PI3K-beta, PI3K-gamma, PI3K-delta) were screened in a 10-dose IC50 mode with threefold serial dilutions starting at 100 μM. Staurosporine was used as a control starting at 10 μM and the reactions were carried out at 1 μM ATP.
Chain of AKT1 (P31749 whole entry, species assumed): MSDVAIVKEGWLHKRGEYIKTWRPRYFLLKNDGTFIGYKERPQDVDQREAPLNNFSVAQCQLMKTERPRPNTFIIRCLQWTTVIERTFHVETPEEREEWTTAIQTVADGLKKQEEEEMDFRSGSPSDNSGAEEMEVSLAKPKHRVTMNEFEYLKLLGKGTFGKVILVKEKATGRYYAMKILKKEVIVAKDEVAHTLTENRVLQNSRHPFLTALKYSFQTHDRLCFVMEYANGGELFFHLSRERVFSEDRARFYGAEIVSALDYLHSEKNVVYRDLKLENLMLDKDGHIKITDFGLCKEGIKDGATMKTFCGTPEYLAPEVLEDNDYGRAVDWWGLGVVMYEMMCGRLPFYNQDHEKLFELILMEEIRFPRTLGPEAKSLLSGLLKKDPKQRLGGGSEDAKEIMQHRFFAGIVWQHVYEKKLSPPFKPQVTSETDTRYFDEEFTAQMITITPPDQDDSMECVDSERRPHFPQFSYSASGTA
(§2) Without wishing to be bound by theory, DAL brings about its antivascular effects by destabilizing cell adhesion through the actin cytoskeleton. It was next sought to identify which specific adhesion pathway it targets. Mechanical attachment at cell-cell adherens and tight junctions is regulated by dynamic changes in the actin cytoskeleton. Adherens junctions are composed of E-cadherin/β-catenin complexes and are connected to the actin cytoskeleton via sa-catenin (25-26), while tight junctions consist of transmembrane claudins and occludin and are associated with the actin cytoskeleton via ZO proteins (27-28). Therefore, potential targets of DAL in signaling pathways involved in actin remodeling were evaluated. […] Then, it was sought to determine whether Rho-GTPase family members are targets for DAL due to the disruption of cell adhesion and actin network remodeling along with inhibited motility. Rho-GTPases (e.g., Rac1) plays an important role in actin cytoskeletal organization and is involved in the coordination of cell adhesion (29). Furthermore, Rac1 is responsible for stabilizing endothelial cell junctions by opposing actin remodeling by Rho (30). In order to migrate, cancer cells employ dynamic remodeling of the actin cytoskeleton, form protrusive structures and generate forces necessary to produce cell translocation in the process regulated by Rho-GTPase Rac1. To assess whether DAL can modulate Rac1, RhoA, and Cdc42 activities, affinity purification assays were employed to monitor RhoA and Cdc42/Rac1 activity. The Rho-Binding Domain (RBD) of the Rho effector protein rhotekin and the p21 Binding Domain (PBD) of the Cdc42/Rac effector protein p21 activated kinase 1 (PAK) were applied to pull down active forms of each protein.

In another experiment the target is AKT2 (Homo sapiens, UniProt P31751). Briefly: Kinase inhibition screening. It is filed as biochemical. The following applies: 10-dose, starting at 100 μM, 1 μM ATP. The method, then:
as §1, §2

In the next experiment the target is AKT3 (Homo sapiens, UniProt Q9Y243). The experiment in a line: Kinase inhibition screening. The following applies: 10-dose, starting at 100 μM, 1 μM ATP. Type of experiment: biochemical. The protocol: as §1, §2
Chain of AKT3 (Q9Y243 whole entry, species assumed): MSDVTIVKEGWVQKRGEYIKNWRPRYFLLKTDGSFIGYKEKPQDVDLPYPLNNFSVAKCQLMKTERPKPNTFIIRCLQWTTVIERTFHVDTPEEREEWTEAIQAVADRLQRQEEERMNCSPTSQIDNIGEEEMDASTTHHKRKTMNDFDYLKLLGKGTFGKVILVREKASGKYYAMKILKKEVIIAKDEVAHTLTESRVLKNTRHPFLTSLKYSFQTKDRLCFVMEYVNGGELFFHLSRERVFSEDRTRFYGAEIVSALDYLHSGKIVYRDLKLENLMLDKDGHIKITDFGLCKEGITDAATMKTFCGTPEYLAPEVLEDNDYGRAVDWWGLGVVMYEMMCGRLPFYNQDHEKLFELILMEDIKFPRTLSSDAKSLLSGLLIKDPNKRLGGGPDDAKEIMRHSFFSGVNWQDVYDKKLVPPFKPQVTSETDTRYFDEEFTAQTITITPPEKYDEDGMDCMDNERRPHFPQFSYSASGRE
The target of the next experiment is EPHB4 (Homo sapiens, UniProt P54760). Briefly: Kinase inhibition screening. It is filed as biochemical. As to conditions: 10-dose, starting at 100 μM, 1 μM ATP. The protocol:
as §1, §2

A further experiment concerns the target PI3K-alpha (Homo sapiens, UniProt P42336). Briefly: Kinase inhibition screening. It is filed as biochemical. As to conditions: 10-dose, starting at 100 μM, 1 μM ATP. The protocol: as §1, §2
The target of the next experiment is PI3K-beta (Homo sapiens, UniProt P42338). The experiment in a line: Kinase inhibition screening. Type of experiment: biochemical. As to conditions: 10-dose, starting at 100 μM, 1 μM ATP. The protocol: as §1, §2
Chain of PI3K-beta (P42338 whole entry, species assumed): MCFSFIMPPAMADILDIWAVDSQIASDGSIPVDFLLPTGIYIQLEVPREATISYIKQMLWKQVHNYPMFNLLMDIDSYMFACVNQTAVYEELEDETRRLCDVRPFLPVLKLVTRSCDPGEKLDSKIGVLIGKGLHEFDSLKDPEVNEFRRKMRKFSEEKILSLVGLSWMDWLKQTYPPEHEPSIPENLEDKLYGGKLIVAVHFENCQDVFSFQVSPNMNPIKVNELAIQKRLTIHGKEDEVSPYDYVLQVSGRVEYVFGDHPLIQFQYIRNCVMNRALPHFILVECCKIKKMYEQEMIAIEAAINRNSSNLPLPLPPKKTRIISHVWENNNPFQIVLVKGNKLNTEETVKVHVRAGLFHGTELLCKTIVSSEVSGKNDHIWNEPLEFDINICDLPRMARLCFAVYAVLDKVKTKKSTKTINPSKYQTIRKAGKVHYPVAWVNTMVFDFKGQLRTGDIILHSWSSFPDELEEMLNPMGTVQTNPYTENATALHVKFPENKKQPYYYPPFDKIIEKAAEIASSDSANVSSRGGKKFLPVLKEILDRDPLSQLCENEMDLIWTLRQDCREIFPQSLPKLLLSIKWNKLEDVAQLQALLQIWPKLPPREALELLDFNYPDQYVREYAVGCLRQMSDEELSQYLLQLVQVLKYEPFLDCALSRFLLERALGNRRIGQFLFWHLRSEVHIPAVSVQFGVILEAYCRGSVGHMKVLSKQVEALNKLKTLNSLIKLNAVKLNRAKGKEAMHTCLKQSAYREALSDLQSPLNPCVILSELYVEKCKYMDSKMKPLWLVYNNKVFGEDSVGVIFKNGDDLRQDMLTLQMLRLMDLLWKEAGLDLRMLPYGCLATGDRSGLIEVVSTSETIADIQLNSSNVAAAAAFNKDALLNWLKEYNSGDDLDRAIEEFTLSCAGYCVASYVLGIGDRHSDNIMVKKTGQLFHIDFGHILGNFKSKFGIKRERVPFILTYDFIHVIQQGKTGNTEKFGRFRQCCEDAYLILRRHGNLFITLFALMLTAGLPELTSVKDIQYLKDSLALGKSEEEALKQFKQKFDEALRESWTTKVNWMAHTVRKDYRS
Chain of PI3K-beta (P27986 whole entry partner, species assumed): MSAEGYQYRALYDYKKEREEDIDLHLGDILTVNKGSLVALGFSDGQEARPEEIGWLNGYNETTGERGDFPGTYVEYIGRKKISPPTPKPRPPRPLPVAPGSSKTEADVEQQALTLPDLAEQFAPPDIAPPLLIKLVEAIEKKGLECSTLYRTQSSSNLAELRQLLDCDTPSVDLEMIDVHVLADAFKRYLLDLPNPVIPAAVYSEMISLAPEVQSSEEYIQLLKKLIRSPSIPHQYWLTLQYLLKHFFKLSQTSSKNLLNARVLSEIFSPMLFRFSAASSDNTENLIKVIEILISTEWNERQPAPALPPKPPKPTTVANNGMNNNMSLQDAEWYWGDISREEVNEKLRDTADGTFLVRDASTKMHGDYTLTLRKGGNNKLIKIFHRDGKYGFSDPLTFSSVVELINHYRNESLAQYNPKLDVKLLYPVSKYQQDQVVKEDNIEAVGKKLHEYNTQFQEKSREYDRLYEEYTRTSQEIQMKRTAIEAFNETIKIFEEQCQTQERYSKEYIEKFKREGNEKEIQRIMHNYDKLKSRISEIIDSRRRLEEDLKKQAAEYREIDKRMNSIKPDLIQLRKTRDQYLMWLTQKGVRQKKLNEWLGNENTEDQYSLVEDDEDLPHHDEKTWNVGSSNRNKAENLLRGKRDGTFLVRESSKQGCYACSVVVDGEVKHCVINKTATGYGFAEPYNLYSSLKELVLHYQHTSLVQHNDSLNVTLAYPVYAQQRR
A further experiment addresses PI3K-delta (Homo sapiens, UniProt O00329). The experiment in a line: Kinase inhibition screening. It is filed as biochemical. The following applies: 10-dose, starting at 100 μM, 1 μM ATP. The method, then: as §1, §2
In another experiment the target is PKA (Homo sapiens, UniProt P17612). Briefly: Kinase inhibition screening. The following applies: 10-dose, starting at 100 μM, 1 μM ATP. Type of experiment: biochemical. The method, then: as §1, §2
The target of another experiment is PKC alpha (Homo sapiens, UniProt P17252). Briefly: Kinase inhibition screening. Type of experiment: biochemical. As to conditions: 10-dose, starting at 100 μM, 1 μM ATP. The method, then: as §1, §2
A further experiment concerns the target PKC delta (Homo sapiens, UniProt Q05655). Briefly: Kinase inhibition screening. It is filed as biochemical. As to conditions: 10-dose, starting at 100 μM, 1 μM ATP. The protocol: as §1, §2
The target of a further experiment is p38 alpha (Homo sapiens, UniProt Q16539). The experiment in a line: Kinase inhibition screening. Type of experiment: biochemical. The following applies: 10-dose, starting at 100 μM, 1 μM ATP. The protocol:
as §1, §2

“Also recorded” adds a separate entry of the source.

Data on one compound can be found in patent US20140161720A1, “TREATMENT OF ANGIOGENIC- OR VASCULAR-ASSOCIATED DISEASES” (THE GENERAL HOSPITAL CORPORATION, priority 2011, published 2014).

Chain of p38 alpha (Q16539 whole entry): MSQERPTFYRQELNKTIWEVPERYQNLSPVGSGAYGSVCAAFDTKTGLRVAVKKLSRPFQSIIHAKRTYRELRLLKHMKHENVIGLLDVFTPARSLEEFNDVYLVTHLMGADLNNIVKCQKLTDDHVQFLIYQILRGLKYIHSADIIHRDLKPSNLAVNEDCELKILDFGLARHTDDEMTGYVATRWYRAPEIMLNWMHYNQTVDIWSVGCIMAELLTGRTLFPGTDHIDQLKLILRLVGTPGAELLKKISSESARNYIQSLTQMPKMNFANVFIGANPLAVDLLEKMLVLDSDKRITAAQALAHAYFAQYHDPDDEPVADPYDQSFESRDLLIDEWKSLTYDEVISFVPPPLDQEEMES
Chain of PKC delta (Q05655 whole entry): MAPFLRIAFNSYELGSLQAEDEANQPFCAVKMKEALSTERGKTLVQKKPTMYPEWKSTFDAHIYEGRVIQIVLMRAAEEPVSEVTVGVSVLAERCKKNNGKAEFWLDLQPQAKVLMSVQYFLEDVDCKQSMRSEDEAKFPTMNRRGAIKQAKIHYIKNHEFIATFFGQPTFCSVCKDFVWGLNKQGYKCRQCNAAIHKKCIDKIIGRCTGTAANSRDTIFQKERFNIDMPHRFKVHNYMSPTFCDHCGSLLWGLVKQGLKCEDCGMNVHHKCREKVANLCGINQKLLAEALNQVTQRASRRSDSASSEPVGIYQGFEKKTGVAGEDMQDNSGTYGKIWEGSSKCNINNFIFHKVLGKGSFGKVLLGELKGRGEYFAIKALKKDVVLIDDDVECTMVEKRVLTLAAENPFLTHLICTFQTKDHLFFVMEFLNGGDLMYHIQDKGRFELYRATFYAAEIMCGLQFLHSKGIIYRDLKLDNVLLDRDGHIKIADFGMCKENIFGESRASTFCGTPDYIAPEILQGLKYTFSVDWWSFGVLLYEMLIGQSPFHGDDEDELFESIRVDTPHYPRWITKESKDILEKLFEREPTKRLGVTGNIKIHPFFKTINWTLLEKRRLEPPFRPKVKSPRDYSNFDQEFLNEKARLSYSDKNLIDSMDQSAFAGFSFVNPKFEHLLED
Chain of AKT2 (P31751 whole entry, species assumed): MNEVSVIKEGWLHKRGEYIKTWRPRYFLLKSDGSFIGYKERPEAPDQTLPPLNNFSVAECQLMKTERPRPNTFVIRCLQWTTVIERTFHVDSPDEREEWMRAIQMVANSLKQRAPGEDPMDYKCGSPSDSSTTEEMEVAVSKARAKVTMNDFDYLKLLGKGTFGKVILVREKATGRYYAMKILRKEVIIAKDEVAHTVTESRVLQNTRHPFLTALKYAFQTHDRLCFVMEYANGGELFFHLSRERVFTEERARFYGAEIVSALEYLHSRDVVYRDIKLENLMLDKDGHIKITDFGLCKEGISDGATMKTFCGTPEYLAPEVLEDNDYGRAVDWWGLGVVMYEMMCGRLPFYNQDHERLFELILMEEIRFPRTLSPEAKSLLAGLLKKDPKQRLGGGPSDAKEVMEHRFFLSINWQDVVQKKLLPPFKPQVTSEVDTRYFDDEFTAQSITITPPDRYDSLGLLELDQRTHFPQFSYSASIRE

Take `CC1(C)C=CC2=C(O1)C(=O)c1ccccc1C2=O` [DAL, dehydro-alpha-lapachone]: in experiment [1] (day 2 and day 4, versus saline), the “total tumor vascular length (normalized to tumor volume)” value is recorded as “lower”. Moreover, the “tumor vascular volume fraction” value in experiment [1] (day 4, versus saline) is reported as “decreases; also recorded: lower”. Moreover, in experiment [1] (versus saline), the “mean tumor vascular diameter” value is on record as “remains the same; also recorded: no significant difference”. The RhoA activity result in the experiment with RhoA was “no effect”. In the experiment on Rac1, the “protein levels of Rac1” value is reported as “reduced; also recorded: decreases”. The “effect on kinase AKT1” value at AKT1 is on record as “no significant effects”. Besides, the “effect on kinase AKT2” value at AKT2 is “no significant effects”. In addition, the “effect on kinase AKT3” value at AKT3 is “no significant effects”. Also, the “effect on kinase EPHB4” value at EPHB4 was “no significant effects”. In addition, the “effect on kinase PI3K-alpha” value at PI3K-alpha was “no significant effects”. Besides, the “effect on kinase PI3K-beta” value on PI3K-beta is recorded as “no significant effects”. On PI3K-delta, the “effect on kinase PI3K-delta” value is given as “no significant effects”. The “effect on kinase PKA” value on PKA was “no significant effects”. For the same compound, on PKC alpha, the “effect on kinase PKC alpha” value is “no significant effects”. The “effect on kinase PKC delta” value at PKC delta is recorded as “no significant effects”. Also, the “effect on kinase p38 alpha” value on p38 alpha is reported as “no significant effects”.
